Measured values taken from patent US12522583B2, “Benzimidazole derivatives and aza-benzimidazole derivatives as Janus kinase 2 inhibitors and uses thereof” (Dana-Farber Cancer Institute, Inc., priority 2018, dated 2026).

Experiments:
JAK2 = JAK2 (Homo sapiens (Human), UniProt O60674); assay: JAK2 Z-Lyte biochemical assay
Procedure: Example 3. JAK2 Z-Lyte Biochemical Assay of the Compounds of the Present Disclosure
The JAK2 Z-Lyte biochemical assay was performed according to manufacturer's instructions (Life Technologies).

EGFR = EGFR (Homo sapiens (Human), UniProt P00533); assay: KINOMEscan; type: binding; conditions: read-out: percent control
Text: (§1) Example 2. In Vitro Kinase Selectivity Profiling of the Compounds of the Present Disclosure

EPHB2 = EPHB2 (Homo sapiens (Human), UniProt P29323); assay: KINOMEscan; type: binding; conditions: read-out: percent control
Text: as §1

STK36 = STK36 (Homo sapiens (Human), UniProt Q9NRP7); assay: KINOMEscan; type: binding; conditions: read-out: percent control
Text: as §1

ASK1 = ASK1 (Homo sapiens (Human), UniProt Q99683); assay: KINOMEscan; type: binding; conditions: read-out: percent control
Text: as §1

INSR = INSR (Homo sapiens (Human), UniProt P06213); assay: KINOMEscan; type: binding; conditions: read-out: percent control
Text: as §1

PYK2 = PYK2 (Homo sapiens (Human), UniProt Q14289); assay: KINOMEscan; type: binding; conditions: read-out: percent control
Text: as §1

HCK = HCK (Homo sapiens (Human), UniProt P08631); assay: KINOMEscan; type: binding; conditions: read-out: percent control
Text: as §1

TAOK3 = TAOK3 (Homo sapiens (Human), UniProt Q9H2K8); assay: KINOMEscan; type: binding; conditions: read-out: percent control
Text: as §1

VPS34 = VPS34 (Homo sapiens (Human), UniProt Q8NEB9); assay: KINOMEscan; type: binding; conditions: read-out: percent control
Text: as §1

PKMYT1 = PKMYT1 (Homo sapiens (Human), UniProt Q99640); assay: KINOMEscan; type: binding; conditions: read-out: percent control
Text: as §1

TAK1 = TAK1 (Homo sapiens (Human), UniProt O43318); assay: KINOMEscan; type: binding; conditions: read-out: percent control
Text: as §1

CSNK1G2 = CSNK1G2 (Homo sapiens (Human), UniProt P78368); assay: KINOMEscan; type: binding; conditions: read-out: percent control
Text: as §1

PLK1 = PLK1 (Homo sapiens (Human), UniProt P53350); assay: KINOMEscan; type: binding; conditions: read-out: percent control
Text: as §1

LATS2 = LATS2 (Homo sapiens (Human), UniProt Q9NRM7); assay: KINOMEscan; type: binding; conditions: read-out: percent control
Text: as §1

SRMS = SRMS (Homo sapiens (Human), UniProt Q9H3Y6); assay: KINOMEscan; type: binding; conditions: read-out: percent control
Text: as §1

BUB 1 = BUB 1 (Homo sapiens (Human), UniProt O43683); assay: KINOMEscan; type: binding; conditions: read-out: percent control
Text: as §1

BMX = BMX (Homo sapiens (Human), UniProt P51813); assay: KINOMEscan; type: binding; conditions: read-out: percent control
Text: as §1

SRC = SRC (Homo sapiens (Human), UniProt P12931); assay: KINOMEscan; type: binding; conditions: read-out: percent control
Text: as §1

DYRK1A = DYRK1A (Homo sapiens (Human), UniProt Q13627); assay: KINOMEscan; type: binding; conditions: read-out: percent control
Text: as §1

MEK1 = MEK1 (Homo sapiens (Human), UniProt Q02750); assay: KINOMEscan; type: binding; conditions: read-out: percent control
Text: as §1

VEGFR2 = VEGFR2 (Homo sapiens (Human), UniProt P35968); assay: KINOMEscan; type: binding; conditions: read-out: percent control
Text: as §1

BMPR1A = BMPR1A (Homo sapiens (Human), UniProt P36894); assay: KINOMEscan; type: binding; conditions: read-out: percent control
Text: as §1

SNRK = SNRK (Homo sapiens (Human), UniProt Q9NRH2); assay: KINOMEscan; type: binding; conditions: read-out: percent control
Text: as §1

CSF1R = CSF1R (Homo sapiens (Human), UniProt P07333); assay: KINOMEscan; type: binding; conditions: read-out: percent control
Text: as §1

MAP4K2 = MAP4K2 (Homo sapiens (Human), UniProt Q12851); assay: KINOMEscan; type: binding; conditions: read-out: percent control
Text: as §1

DMPK2 = DMPK2 (Homo sapiens (Human), UniProt Q6DT37); assay: KINOMEscan; type: binding; conditions: read-out: percent control
Text: as §1

PIP5K1A = PIP5K1A (Homo sapiens (Human), UniProt Q99755); assay: KINOMEscan; type: binding; conditions: read-out: percent control
Text: as §1

LCK = LCK (Homo sapiens (Human), UniProt P06239); assay: KINOMEscan; type: binding; conditions: read-out: percent control
Text: as §1

KIT(D816V) = KIT(D816V) (Homo sapiens (Human), UniProt P10721, D816V); assay: KINOMEscan; type: binding; conditions: read-out: percent control
Text: as §1

[1] = biological target: ABL1(Q252H)-nonphosphorylated (Homo sapiens (Human), UniProt P00519, Q252H); assay: KINOMEscan; type: binding; conditions: read-out: percent control
Text: as §1

DAPK2 = DAPK2 (Homo sapiens (Human), UniProt Q9UIK4); assay: KINOMEscan; type: binding; conditions: read-out: percent control
Text: as §1

ACVR2A = ACVR2A (Homo sapiens (Human), UniProt P27037); assay: KINOMEscan; type: binding; conditions: read-out: percent control
Text: as §1

FGFR2 = FGFR2 (Homo sapiens (Human), UniProt P21802); assay: KINOMEscan; type: binding; conditions: read-out: percent control
Text: as §1

CAMK2A = CAMK2A (Homo sapiens (Human), UniProt Q9UQM7); assay: KINOMEscan; type: binding; conditions: read-out: percent control
Text: as §1

SNARK = SNARK (Homo sapiens (Human), UniProt Q9H093); assay: KINOMEscan; type: binding; conditions: read-out: percent control
Text: as §1

NLK = NLK (Homo sapiens (Human), UniProt Q9UBE8); assay: KINOMEscan; type: binding; conditions: read-out: percent control
Text: as §1

WNK3 = WNK3 (Homo sapiens (Human), UniProt Q9BYP7); assay: KINOMEscan; type: binding; conditions: read-out: percent control
Text: as §1

WNK1 = WNK1 (Homo sapiens (Human), UniProt Q9H4A3); assay: KINOMEscan; type: binding; conditions: read-out: percent control
Text: as §1

DDR1 = DDR1 (Homo sapiens (Human), UniProt Q08345); assay: KINOMEscan; type: binding; conditions: read-out: percent control
Text: as §1

Chain of CAMK2A (Q9UQM7 whole entry): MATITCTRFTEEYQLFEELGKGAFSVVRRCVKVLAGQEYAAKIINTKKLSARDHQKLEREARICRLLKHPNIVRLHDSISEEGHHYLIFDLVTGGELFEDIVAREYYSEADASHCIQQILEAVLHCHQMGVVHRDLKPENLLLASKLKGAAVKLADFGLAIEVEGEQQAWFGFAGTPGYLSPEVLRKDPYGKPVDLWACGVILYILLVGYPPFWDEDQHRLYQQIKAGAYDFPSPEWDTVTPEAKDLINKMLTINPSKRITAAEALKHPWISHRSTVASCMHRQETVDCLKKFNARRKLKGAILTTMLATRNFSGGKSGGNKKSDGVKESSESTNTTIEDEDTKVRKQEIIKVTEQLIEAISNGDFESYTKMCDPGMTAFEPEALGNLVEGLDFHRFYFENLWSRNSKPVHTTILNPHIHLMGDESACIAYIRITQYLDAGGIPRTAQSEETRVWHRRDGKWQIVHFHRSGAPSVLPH
Chain of DAPK2 (Q9UIK4 whole entry): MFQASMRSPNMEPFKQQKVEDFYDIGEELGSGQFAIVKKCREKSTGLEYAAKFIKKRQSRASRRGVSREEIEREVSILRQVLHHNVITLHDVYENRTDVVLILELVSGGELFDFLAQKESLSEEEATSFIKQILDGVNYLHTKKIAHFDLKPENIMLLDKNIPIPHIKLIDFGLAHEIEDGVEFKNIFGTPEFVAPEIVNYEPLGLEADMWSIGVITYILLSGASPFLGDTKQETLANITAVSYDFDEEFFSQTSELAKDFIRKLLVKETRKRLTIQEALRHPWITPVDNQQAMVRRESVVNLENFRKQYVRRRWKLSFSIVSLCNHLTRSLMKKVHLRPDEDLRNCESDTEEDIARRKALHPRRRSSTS
Chain of EPHB2 (P29323 19-1055): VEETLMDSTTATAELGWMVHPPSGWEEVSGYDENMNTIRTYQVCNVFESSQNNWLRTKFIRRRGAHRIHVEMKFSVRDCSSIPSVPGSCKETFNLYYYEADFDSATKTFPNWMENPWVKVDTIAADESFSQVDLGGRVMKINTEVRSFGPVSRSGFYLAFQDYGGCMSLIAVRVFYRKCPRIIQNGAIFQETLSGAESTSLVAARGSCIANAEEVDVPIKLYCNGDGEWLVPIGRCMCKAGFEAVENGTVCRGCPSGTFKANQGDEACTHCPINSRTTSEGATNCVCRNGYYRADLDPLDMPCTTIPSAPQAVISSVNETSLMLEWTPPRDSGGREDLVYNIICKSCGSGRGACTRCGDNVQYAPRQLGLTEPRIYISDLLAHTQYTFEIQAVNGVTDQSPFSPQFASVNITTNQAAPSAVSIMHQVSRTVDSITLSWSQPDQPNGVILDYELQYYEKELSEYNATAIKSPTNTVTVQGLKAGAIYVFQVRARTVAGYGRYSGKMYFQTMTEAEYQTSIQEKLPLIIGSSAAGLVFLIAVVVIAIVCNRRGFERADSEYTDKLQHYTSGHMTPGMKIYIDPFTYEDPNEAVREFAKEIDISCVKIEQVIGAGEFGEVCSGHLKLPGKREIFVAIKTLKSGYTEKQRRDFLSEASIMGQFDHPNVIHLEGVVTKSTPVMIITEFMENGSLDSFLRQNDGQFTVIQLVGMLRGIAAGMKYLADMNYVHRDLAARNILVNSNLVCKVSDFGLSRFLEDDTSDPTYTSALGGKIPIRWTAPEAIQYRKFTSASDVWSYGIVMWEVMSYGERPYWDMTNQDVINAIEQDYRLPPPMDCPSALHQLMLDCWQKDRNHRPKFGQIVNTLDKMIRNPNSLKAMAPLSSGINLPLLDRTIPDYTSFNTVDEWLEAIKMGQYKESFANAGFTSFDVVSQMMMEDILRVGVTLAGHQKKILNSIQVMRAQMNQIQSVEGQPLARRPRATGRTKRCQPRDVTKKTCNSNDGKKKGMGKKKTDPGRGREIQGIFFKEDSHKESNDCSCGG
Chain of PKMYT1 (Q99640 whole entry): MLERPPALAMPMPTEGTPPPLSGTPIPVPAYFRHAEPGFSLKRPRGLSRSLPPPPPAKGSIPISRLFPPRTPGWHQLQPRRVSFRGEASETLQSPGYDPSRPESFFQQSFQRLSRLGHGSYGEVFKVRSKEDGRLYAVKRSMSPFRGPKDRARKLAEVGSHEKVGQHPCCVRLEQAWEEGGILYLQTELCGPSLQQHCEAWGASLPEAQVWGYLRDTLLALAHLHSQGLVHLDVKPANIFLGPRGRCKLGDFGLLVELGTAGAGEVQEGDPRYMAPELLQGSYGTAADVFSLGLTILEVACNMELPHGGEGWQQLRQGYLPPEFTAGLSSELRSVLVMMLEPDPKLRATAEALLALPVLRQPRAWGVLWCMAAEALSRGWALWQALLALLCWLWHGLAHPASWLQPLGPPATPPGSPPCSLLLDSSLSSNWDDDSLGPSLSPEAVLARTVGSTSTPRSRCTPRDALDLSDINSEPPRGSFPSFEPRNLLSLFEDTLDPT
Chain of SRC (P12931 whole entry, looked up): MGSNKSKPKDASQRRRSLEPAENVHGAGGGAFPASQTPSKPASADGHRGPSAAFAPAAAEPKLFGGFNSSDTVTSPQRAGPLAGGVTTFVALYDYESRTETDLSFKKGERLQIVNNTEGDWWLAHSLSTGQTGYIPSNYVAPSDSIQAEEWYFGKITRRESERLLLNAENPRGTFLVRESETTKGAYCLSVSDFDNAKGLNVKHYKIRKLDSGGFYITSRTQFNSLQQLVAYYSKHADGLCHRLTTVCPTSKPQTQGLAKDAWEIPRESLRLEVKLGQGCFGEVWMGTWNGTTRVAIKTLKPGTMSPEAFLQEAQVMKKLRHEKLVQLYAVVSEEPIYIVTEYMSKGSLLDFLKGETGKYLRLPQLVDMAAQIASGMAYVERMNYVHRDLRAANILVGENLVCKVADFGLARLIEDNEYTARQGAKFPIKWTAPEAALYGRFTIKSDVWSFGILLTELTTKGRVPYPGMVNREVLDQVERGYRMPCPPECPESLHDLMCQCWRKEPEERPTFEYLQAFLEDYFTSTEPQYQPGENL
Chain of KIT(D816V) (P10721 26-976 D816V): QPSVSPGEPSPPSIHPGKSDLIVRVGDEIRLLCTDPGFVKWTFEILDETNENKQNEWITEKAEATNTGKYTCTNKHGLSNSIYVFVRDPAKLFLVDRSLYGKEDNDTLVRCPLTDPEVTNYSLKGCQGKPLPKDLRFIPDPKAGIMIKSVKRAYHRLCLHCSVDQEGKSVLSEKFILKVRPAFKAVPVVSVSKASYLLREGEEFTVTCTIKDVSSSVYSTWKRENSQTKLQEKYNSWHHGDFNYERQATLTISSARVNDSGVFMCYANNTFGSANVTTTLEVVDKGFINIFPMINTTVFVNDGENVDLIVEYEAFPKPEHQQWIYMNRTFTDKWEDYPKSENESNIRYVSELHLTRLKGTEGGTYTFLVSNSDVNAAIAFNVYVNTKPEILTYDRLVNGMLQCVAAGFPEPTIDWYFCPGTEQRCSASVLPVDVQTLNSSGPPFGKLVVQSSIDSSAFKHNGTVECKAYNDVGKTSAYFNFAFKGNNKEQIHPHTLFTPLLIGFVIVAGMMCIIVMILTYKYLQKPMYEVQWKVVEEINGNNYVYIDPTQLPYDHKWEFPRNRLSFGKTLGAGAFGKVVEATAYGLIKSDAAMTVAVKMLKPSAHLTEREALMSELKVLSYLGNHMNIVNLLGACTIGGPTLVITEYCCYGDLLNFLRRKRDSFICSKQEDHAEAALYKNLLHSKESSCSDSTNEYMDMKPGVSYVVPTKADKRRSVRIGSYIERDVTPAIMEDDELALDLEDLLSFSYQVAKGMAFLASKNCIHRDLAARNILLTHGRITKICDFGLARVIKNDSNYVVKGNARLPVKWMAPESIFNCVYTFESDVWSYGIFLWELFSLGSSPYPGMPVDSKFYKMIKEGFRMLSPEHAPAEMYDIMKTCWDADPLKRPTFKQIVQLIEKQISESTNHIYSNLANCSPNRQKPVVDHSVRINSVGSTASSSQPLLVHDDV
Chain of PIP5K1A (Q99755 whole entry): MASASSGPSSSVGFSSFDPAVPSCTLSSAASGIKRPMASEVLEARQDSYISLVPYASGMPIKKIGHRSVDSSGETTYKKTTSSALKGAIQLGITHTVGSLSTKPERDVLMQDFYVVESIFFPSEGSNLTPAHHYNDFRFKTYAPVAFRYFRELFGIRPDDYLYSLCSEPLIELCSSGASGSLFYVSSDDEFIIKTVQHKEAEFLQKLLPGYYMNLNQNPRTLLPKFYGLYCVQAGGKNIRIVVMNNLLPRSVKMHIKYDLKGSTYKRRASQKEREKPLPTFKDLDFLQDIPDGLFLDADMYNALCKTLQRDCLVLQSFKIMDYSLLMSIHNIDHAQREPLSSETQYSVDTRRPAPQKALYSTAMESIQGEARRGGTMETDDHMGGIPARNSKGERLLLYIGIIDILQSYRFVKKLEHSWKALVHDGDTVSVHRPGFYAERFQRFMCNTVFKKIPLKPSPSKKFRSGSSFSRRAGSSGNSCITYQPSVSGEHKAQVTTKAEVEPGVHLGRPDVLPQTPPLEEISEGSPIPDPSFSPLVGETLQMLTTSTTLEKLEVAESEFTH
Chain of SRMS (Q9H3Y6 whole entry): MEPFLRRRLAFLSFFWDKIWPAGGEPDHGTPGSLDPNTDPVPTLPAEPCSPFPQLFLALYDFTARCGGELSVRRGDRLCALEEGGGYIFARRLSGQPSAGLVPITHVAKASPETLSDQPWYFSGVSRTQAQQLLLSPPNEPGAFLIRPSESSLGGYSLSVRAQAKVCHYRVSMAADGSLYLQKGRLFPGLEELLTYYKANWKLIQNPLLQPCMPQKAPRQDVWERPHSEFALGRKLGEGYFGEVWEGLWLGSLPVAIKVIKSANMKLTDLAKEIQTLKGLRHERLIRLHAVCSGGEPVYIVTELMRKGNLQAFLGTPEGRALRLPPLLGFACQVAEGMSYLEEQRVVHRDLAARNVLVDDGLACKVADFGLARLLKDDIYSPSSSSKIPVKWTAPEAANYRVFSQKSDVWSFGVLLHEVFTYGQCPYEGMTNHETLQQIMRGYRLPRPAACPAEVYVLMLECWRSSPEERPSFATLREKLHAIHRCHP

| Compound | IC50 (JAK2) [µM] | remaining binding at 1 µM (EGFR) [%] | remaining binding at 1 µM (EPHB2) [%] | remaining binding at 1 µM (STK36) [%] | remaining binding at 1 µM (ASK1) [%] | remaining binding at 1 µM (INSR) [%] | remaining binding at 1 µM (PYK2) [%] | remaining binding at 1 µM (HCK) [%] | remaining binding at 1 µM (TAOK3) [%] | remaining binding at 1 µM (VPS34) [%] | remaining binding at 1 µM (PKMYT1) [%] | remaining binding at 1 µM (TAK1) [%] | remaining binding at 1 µM (CSNK1G2) [%] | remaining binding at 1 µM (PLK1) [%] | remaining binding at 1 µM (LATS2) [%] | remaining binding at 1 µM (SRMS) [%] | remaining binding at 1 µM (BUB 1) [%] | remaining binding at 1 µM (BMX) [%] | remaining binding at 1 µM (SRC) [%] | remaining binding at 1 µM (DYRK1A) [%] | further results |
| --- | --- | --- | --- | --- | --- | --- | --- | --- | --- | --- | --- | --- | --- | --- | --- | --- | --- | --- | --- | --- | --- |
| CCN1CCN(Cc2ccc(Nc3nc4ccc(Oc5ccnc(NC(C)=O)c5)cc4n3C)cc2C(F)(F)F)CC1 [Compound I-2] | 0.794 | 79 | 81 | 79 | 77 | 20 | 33 | 89 | 41 | 87 | 91 | 28 | 100 | 100 | 100 | 67 | 100 | 100 | 61 | 92 | remaining binding at 1 µM (MEK1): 94%; remaining binding at 1 µM (VEGFR2): 0.85%; remaining binding at 1 µM (BMPR1A): 100%; remaining binding at 1 µM (SNRK): 100%; remaining binding at 1 µM (CSF1R): 0.1%; remaining binding at 1 µM (MAP4K2): 100%; remaining binding at 1 µM (DMPK2): 89%; remaining binding at 1 µM (PIP5K1A): 99%; remaining binding at 1 µM (LCK): 18%; remaining binding at 1 µM (KIT(D816V)): 56%; remaining binding at 1 µM [1]: 0%; remaining binding at 1 µM (DAPK2): 79%; remaining binding at 1 µM (ACVR2A): 100%; remaining binding at 1 µM (FGFR2): 100%; remaining binding at 1 µM (CAMK2A): 79%; remaining binding at 1 µM (SNARK): 100%; remaining binding at 1 µM (NLK): 84%; remaining binding at 1 µM (WNK3): 100%; remaining binding at 1 µM (WNK1): 100%; remaining binding at 1 µM (DDR1): 0.05% |
| CCN1CCN(Cc2ccc(Nc3nc4ccc(Oc5ccnc(NC(C)=O)c5)c(C)c4n3C)cc2C(F)(F)F)CC1 [Compound I-6, N-(4-(2-(4-((4-ethylpiperazin-1-yl)methyl)-3-(trifluoromethyl)phenylamino)-1,7-dimethyl-1H-benzo[d]imidazol-6-yloxy)pyridin-2-yl)acetamide] | 0.98 | 100 | 100 | 92 | 97 | 12 | 8.8 | 34 | 13 | 100 | 90 | 10 | 100 | 71 | 100 | 38 | 100 | 91 | 32 | 100 | remaining binding at 1 µM (MEK1): 87%; remaining binding at 1 µM (VEGFR2): 1.7%; remaining binding at 1 µM (BMPR1A): 98%; remaining binding at 1 µM (SNRK): 81%; remaining binding at 1 µM (CSF1R): 0.35%; remaining binding at 1 µM (MAP4K2): 68%; remaining binding at 1 µM (DMPK2): 83%; remaining binding at 1 µM (PIP5K1A): 100%; remaining binding at 1 µM (LCK): 1.6%; remaining binding at 1 µM (KIT(D816V)): 50%; remaining binding at 1 µM [1]: 1.9%; remaining binding at 1 µM (DAPK2): 99%; remaining binding at 1 µM (ACVR2A): 100%; remaining binding at 1 µM (FGFR2): 82%; remaining binding at 1 µM (CAMK2A): 100%; remaining binding at 1 µM (SNARK): 100%; remaining binding at 1 µM (NLK): 40%; remaining binding at 1 µM (WNK3): 100%; remaining binding at 1 µM (WNK1): 100%; remaining binding at 1 µM (DDR1): 0% |
